Converted amounts (≈) assume the structure as drawn. “And” between values parts separate entries of the source, which are not always exact repeats. Equal entries are not always repeated. Where two headings read alike, the source gives them in different places.
How the values were obtained:
[1] = target: T1, Jack Bean alpha-mannosidase (Canavalia ensiformis, UniProt C0HJB3); test: Jack Bean alpha-mannosidase assay; type: biochemical; settings: pH 6.0, 37° C., 30 minutes, p-nitrophenyl-alpha-D-mannopyranoside substrate; read-out: D50 Values (Inhibition), J.B. mannosidase (converted)
T1 sequence (C0HJB3 1-981): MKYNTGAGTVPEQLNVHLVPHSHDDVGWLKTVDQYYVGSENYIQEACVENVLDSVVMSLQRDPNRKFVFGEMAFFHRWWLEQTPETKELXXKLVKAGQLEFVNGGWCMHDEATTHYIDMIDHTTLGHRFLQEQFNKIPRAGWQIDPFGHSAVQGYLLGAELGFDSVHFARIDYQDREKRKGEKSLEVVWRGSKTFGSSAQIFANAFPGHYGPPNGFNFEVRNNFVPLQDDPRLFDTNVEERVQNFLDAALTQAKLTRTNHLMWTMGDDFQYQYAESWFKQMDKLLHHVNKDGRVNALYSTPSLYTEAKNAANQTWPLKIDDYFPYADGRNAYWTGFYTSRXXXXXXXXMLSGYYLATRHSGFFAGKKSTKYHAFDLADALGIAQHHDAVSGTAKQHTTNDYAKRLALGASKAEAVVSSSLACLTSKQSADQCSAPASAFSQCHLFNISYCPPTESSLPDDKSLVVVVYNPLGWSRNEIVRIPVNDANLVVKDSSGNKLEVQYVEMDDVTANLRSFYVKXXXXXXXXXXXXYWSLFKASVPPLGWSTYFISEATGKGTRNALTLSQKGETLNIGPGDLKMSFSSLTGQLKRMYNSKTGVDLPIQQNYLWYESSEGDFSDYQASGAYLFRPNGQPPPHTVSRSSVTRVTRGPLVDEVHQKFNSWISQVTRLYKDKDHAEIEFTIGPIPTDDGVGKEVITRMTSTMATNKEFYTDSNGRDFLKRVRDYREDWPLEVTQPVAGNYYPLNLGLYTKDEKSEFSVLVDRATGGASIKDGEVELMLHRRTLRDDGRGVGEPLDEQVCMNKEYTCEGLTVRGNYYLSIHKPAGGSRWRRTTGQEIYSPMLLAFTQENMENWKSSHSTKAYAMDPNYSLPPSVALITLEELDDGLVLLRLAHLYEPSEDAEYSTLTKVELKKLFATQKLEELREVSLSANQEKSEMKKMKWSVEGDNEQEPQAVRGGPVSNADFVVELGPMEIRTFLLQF
Protocol: Jack Bean alpha-Mannosidase Assay. […] A volume (37.5 ul) of 0.05M sodium acetate (pH 6.0) was added to each well, followed by 37.5 ul of 0.01M p-nitrophenyl-alpha-D-mannopyanoside, and then 10 ul of a 1:400 dilution of Jack Bean alpha-mannosidase. After thoroughly shaking to mix, the mixture was incubated at 37° C. for 30 minutes. The reaction was stopped by the addition of 150 ul of 0.5M sodium carbonate (pH 10.0). The absorbance at 405 nm of the solution in the wells was determined in an ELISA plate reader.

bone marrow cells [2] = test: In vivo bone marrow CFU formation and cellularity, time course (kinetic experiments); design: species or system C57BL/6 mice; settings: 10 μg twice daily i.p.
Excerpt: (§1) Assay for Bone Marrow Cell Proliferation Induced by Swansonine Analogues. Pathogen-free C57BL/6 mice at 8-14 weeks of age were quarantined for one week prior to their use in the experiments described below. Mice were inoculated intraperitoneally twice daily with a designated dose of swainsonine or an analogue of swainsonine for a period of four days. Eighteen hours following the last injection, the mice were sacrificed, bone marrow cells were obtained using standard technology (S. C. White et al., J. Natl. Cancer Inst. 83 1125, 1991). Cellularity of the bone marrow cells so obtained was determined by directly counting the cells after they were flushed from the femurs and tibia of the mice. The cells were processed according to the procedure described in the GIBCO-BRL Mouse Bone Stem Cell Proliferation Kit, and the number of colony forming units (CFU) was assessed using the procedures also described in the kit. For kinetic experiments, mice were administered 10 ug of the analogue (this was the optimum dose in all cases) twice daily for the designated number of days. The experiments were designed so that all regimens terminated on the same day. Eighteen hours after the last injection, the mice were sacrificed and bone marrow cells were obtained and processed as described above.

bone marrow cells [3] = test: In vivo bone marrow CFU formation and bone marrow cellularity, dose dependent effect; design: species or system C57BL/6 mice; settings: for Mean of CFU Formation / Mean of Cellularity: 4 days; for Effect on bone marrow cellularity and CFU formation (summary) / Effect on bone marrow cellularity and CFU formation compared with swainsonine (summary) / optimal dose: summary of experiments; for Effect on bone marrow cellularity and CFU formation compared with swainsonine (summary): for 3 and 23 versus 10 μg swainsonine
Excerpt: as §1

[4] = test system: N-linked oligosaccharide processing; test: L-PHA lectin sensitivity assay for inhibition of N-linked oligosaccharide processing; type: cell-based
Protocol: This test also indicates whether the compounds enter tumor cells and measures the degree of toxicity of the compounds for cells. The test is described in J. W. Dennis, Cancer Research 46:5131, 1986.
Essentially, 2×10^4 cells are placed in individual wells of a 96-well microtest plate, wherein the wells contain serial dilutions of the compounds to be tested. […] […] The cells are then harvested and the amount of radioactivity incorporated into the host cell DNA is measured in a liquid scintillation counter. The amount of radioactivity present in cells in wells in the absence of L-PHA reflects the toxicity of the test compound and the amount of radioactivity present in the presence of L-PHA reflects the level of inhibition of oligosaccharide processing induced by the test compound.

[5] = Expt. 1, 10 μg twice daily i.p.
[6] = Expt. 1, 20 μg twice daily i.p.
[7] = Expt. 1, 40 μg twice daily i.p.
[8] = Expt. 2, 10 μg twice daily i.p.
[9] = L-PHA assay, 3H-thymidine incorporation, read-out: D50 Values (Inhibition), L-PHA assay

Row | Structure (SMILES) | IC50 [1] [µM] | Mean of CFU Formation (bone marrow cells [3]; Expt. 1, 5 μg twice daily i.p.) [CFU] | Mean of Cellularity (bone marrow cells [3]; Expt. 1, 5 μg twice daily i.p.) | Mean of CFU Formation (bone marrow cells [3]; [5]) | Mean of Cellularity (bone marrow cells [3]; [5]) | Mean of CFU Formation (bone marrow cells [3]; [6]) [CFU] | Mean of Cellularity (bone marrow cells [3]; [6]) | Effect on bone marrow cellularity and CFU formation (summary) (bone marrow cells [3]) | IC50 [4, 9] [µg/mL] | Effect on bone marrow cellularity and CFU formation compared with swainsonine (summary) (bone marrow cells [3]) | further results
1 | O=C(O[C@@H]1CN2CCC[C@@H](O)[C@@H]2[C@@H]1O)c1ccccc1 [Compound 5, 1S-8a-β-2-alpha-benzoyloxyoctahydroindolizine-1-alpha-8-β-diol] | 252 | 200 | 2.91 × 10^7 | 324 CFU | 5.76 × 10^7 | 293 | 3.07 × 10^7 | Stimulates CFU & cellularity | 0.5 (≈ 1.8 µM) | – | Mean of CFU Formation (bone marrow cells [2]; 1 day): 250 CFU; Mean of Cellularity (bone marrow cells [2]; 1 day): 3.00 × 10^7; Mean of CFU Formation (bone marrow cells [2]; 2 days): 436 CFU; Mean of Cellularity (bone marrow cells [2]; 2 days): 4.18 × 10^7; Mean of CFU Formation (bone marrow cells [2]; 3 days): 568 CFU; Mean of Cellularity (bone marrow cells [2]; 3 days): 5.59 × 10^7; Mean of CFU Formation (bone marrow cells [2]; 4 days): 623 CFU; Mean of Cellularity (bone marrow cells [2]; 4 days): 7.42 × 10^7; Mean of CFU Formation (bone marrow cells [2]; 5 days): 621 CFU; Mean of Cellularity (bone marrow cells [2]; 5 days): 6.88 × 10^7; Mean of CFU Formation (bone marrow cells [2]; 6 days): 518 CFU; Mean of Cellularity (bone marrow cells [2]; 6 days): 5.24 × 10^7; Mean of CFU Formation (bone marrow cells [3]; [7]): 287 CFU; Mean of Cellularity (bone marrow cells [3]; [7]): 3.07 × 10^7; Mean of Cellularity (bone marrow cells [3]; Expt. 2, 5 μg twice daily i.p.): 3.33 × 10^7; Mean of Cellularity (bone marrow cells [3]; [8]): 4.76 × 10^7; Mean of Cellularity (bone marrow cells [3]; Expt. 2, 20 μg twice daily i.p.): 3.38 × 10^7
2 | CCCCCCCC(=O)O[C@@H]1CN2CCC[C@@H](O)[C@@H]2[C@@H]1O [Compound 6, 1S-8a-β-2-alpha-octanoyloxyoctahydroindolizine-1-alpha-8-β-diol] | 117 | 200 | 2.57 × 10^7 | 437 CFU | 3.83 × 10^7 | 295 | 2.73 × 10^7 | Stimulates CFU and cellularity | 0.066 (≈ 0.22 µM) | not approximating swainsonine | Mean of CFU Formation (bone marrow cells [2]; 1 day): 250 CFU; Mean of Cellularity (bone marrow cells [2]; 1 day): 3.56 × 10^7; Mean of CFU Formation (bone marrow cells [2]; 2 days): 432 CFU; Mean of Cellularity (bone marrow cells [2]; 2 days): 4.63 × 10^7; Mean of CFU Formation (bone marrow cells [2]; 3 days): 550 CFU; Mean of Cellularity (bone marrow cells [2]; 3 days): 5.88 × 10^7; Mean of CFU Formation (bone marrow cells [2]; 4 days): 618 CFU; Mean of Cellularity (bone marrow cells [2]; 4 days): 7.63 × 10^7; Mean of CFU Formation (bone marrow cells [2]; 5 days): 614 CFU; Mean of Cellularity (bone marrow cells [2]; 5 days): 6.25 × 10^7; Mean of CFU Formation (bone marrow cells [2]; 6 days): 488 CFU; Mean of Cellularity (bone marrow cells [2]; 6 days): 5.38 × 10^7
3 | Cc1ccc(C(=O)O[C@@H]2CN3CCC[C@@H](O)[C@@H]3[C@@H]2O)cc1 [Compound 41, 1S-8a-β-2-alpha-p-toluoyloxyoctahydroindolizine-1-alpha-8-β-diol] | 343 | 195 | 2.22 × 10^7 | 359 CFU | 2.99 × 10^7 | 214 | 2.14 × 10^7 | Stimulates CFU & cellularity | 1 (≈ 3.43 µM) | – | –
4 | O=C(O[C@@H]1CN2CCC[C@@H](O)[C@@H]2[C@@H]1O)c1ccc([N+](=O)[O-])cc1 [Compound 42, 1S-8a-β-2-alpha-p-nitorbenzoyloxyoctahydroindolizine-1-alpha-8-β-diol] | 109 | 213 | 2.68 × 10^7 | 373 CFU | 3.21 × 10^7 | 242 | 2.63 × 10^7 | Stimulates CFU & cellularity | 0.066 (≈ 0.205 µM) | – | –
5 | O[C@@H]1[C@H](O)[C@H](O)CN2C[C@@H](O)[C@@H](O)[C@@H]12 [Compound 36, 1S-1-alpha-2-alpha-6β,7β-8β-pentahydroxy-8a-β-octahydroindolizine] | – | 291 | 2.28 × 10^7 | 545 CFU | 5.27 × 10^7 | 327 | 2.59 × 10^7 | – | – | – | –
6 | O[C@H]1[C@H]2[C@H](O)CCCN2C[C@H]1O [swainsonine, 1S-8a-β-octahydroindolizine-1-alpha-2-alpha-8-β-triol, reference compound] | – | – | – | 550 CFU and 446 CFU | 5.86 × 10^7 and 3.73 × 10^7 | – | – | – | 0.033 (≈ 0.191 µM) | – | Mean of Cellularity (bone marrow cells [3]; [8]): 5.76 × 10^7; IC50 ([4]; 30 ug/ml L-PHA, read-out: I50): ~0.02 µg/mL and ~100 nM
7 | O=C1N[C@@H]2[C@@H](O)[C@@H](O)[C@H](O)[C@@H](CO)N2C1=O [Kefunensine, reference compound] | 151 | – | – | – | – | – | – | – | 1 (≈ 4.31 µM) | – | –
8 | CCOC1CC(=O)N2C[C@@H](O)[C@@H](O)[C@H]2[C@@H]1O (stereo partly drawn) [Compound 23, 7-ethoxy-(1S,2R,8R,8aR)-1,2,8-trihydroxy-octahydro-5-oxyindolizine] | 43.2 | – | – | – | – | – | – | – | > 1 | comparable to | optimal dose (bone marrow cells [3]): 10 µg
9 | CCCC(=O)O[C@@H]1CN2CCC[C@@H](O)[C@@H]2[C@@H]1O [Compound 3, 1S-8a-β-2-alpha-butanoyloxyoctahydroindolizine-1-alpha-8-β-diol] | 144 | – | – | – | – | – | – | – | 0.066 (≈ 0.271 µM) | comparable to | optimal dose (bone marrow cells [3]): 10 µg; amount of radioactivity incorporated by cells ([4]; 3H-thymidine incorporation, compared with swainsonine): comparable to that of swainsonine
